Results published in patent US9730914B2, “3,5-diaminopyrazole kinase inhibitors” (Axikin Pharmaceuticals, Inc., priority 2014, dated 2017).

Legend:
JAK3 = target: T1, JAK3 (Homo sapiens, UniProt P52333); assay: Kinase competition binding assay (Kd, qPCR readout), JAK3; conditions: for Kd: Kd class, JAK3, read-out: JAK3 Activity Level; for RCK:JAK3 selectivity ratio: ratio Kd (JAK3): Kd (RCK)
T1 construct: made in house; host or cells: E. coli BL21-derived host (T7 phage) or HEK-293
How it was run: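 Kd values were derived from 11-point, 3-fold compound series at 1% DMSO, usually topping at 30,000 nM, with retesting from a lower top when under 0.5 nM. It competed with bead-immobilized ligand for 1 h at room temperature, and the captured kinase was measured by qPCR after elution.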

JAK2 = target: T2, JAK2 (Homo sapiens, UniProt O60674); assay: Kinase competition binding assay (Kd, qPCR readout), JAK2; conditions: for Kd: Kd class, JAK2, read-out: JAK2 Activity Level; for RCK:JAK2 selectivity ratio: ratio Kd (JAK2): Kd(RCK)
T2 construct: made in house; host or cells: E. coli BL21-derived host (T7 phage) or HEK-293
T2 sequence (O60674 840-1132 limits assumed): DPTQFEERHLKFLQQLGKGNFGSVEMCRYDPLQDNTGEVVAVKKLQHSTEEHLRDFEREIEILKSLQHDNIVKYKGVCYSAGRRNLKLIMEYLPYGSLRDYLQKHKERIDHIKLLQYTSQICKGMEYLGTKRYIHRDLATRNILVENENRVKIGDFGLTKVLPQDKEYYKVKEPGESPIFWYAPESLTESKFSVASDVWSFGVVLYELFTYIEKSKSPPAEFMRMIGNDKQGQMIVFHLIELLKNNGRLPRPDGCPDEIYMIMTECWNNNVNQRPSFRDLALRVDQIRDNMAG
How it was run: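 Competition binding: DNA-tagged kinase (T7 phage or HEK-293-expressed), immobilized biotinylated ligand beads and compound in SeaBlock/PBS/Tween/DTT buffer, 1 hour at room temperature; bound kinase eluted and quantified by qPCR. Kd from 11-point 3-fold dilution, top 30,000 nM typically, final DMSO 1%.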

[1] = target: T3, kinase domain protein of RC kinase (RCK) (Homo sapiens, UniProt Q56UN5); assay: Kinase competition binding assay (Kd, qPCR readout), RC kinase; conditions: Kd class, read-out: RCK Activity Level
T3 construct: made in house; host or cells: E. coli BL21-derived host (T7 phage) or HEK-293
T3 sequence (Q56UN5 1061-1324 limits assumed): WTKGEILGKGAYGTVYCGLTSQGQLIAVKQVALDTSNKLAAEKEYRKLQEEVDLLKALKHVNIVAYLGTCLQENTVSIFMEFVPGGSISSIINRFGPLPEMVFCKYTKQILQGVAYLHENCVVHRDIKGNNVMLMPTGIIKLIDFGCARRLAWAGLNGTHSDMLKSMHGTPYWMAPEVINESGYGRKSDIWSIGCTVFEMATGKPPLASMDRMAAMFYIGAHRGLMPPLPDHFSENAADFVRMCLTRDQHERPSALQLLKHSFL
How it was run: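 Competition binding: DNA-tagged kinase (T7 phage or HEK-293-expressed) plus immobilized biotinylated ligand beads and compound, 1 h at room temperature, 1% DMSO. Bead-bound kinase eluted and quantified by qPCR. Kd from 11-point 3-fold dilution, top 30,000 nM, retested lower if below 0.5 nM.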

T1 sequence (P52333 811-1124 limits assumed): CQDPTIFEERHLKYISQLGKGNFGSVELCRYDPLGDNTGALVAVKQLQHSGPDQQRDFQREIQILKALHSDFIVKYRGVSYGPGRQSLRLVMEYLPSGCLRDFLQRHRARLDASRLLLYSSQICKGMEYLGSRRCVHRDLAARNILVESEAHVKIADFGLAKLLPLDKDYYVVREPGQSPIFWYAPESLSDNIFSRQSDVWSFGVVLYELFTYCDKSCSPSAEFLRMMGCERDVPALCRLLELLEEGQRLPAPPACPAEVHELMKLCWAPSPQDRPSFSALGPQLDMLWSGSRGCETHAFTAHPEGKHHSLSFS

Kd (JAK3) [µM]	Kd (JAK2) [µM]	Kd [1] [µM]	Structure (SMILES)	RCK:JAK3 selectivity ratio (JAK3)	RCK:JAK2 selectivity ratio (JAK2)
> 1	> 1	> 1	Cc1cc(CNc2[nH]nc(Nc3cccc(C#N)c3)c2C(N)=O)cc(C)c1O [Compound 43, 3-((3-cyanophenyl)amino)-5-((4-hydroxy-3,5-dimethylbenzyl)amino)-1H-pyrazole-4-carboxamide]	C (C represents 1<Kd (JAK3): Kd (RCK)<10)	D (D represents Kd(JAK2): Kd (RCK)<1)
> 1	0.1 to 1	0.05 to 0.1	Cc1cc(CNc2[nH]nc(Nc3ccc(N4CCCCC4)cn3)c2C(N)=O)cc(C)c1O [Compound 33, 5-((4-hydroxy-3,5-dimethylbenzyl)amino)-3-((5-(piperidin-1-yl)pyridin-2-yl)amino)-1H-pyrazole-4-carboxamide]	B (B represents 10<Kd (JAK3): Kd (RCK)<100)	C (C represents 1<Kd (JAK2): Kd (RCK)<10)
< 0.05	< 0.05	< 0.05	Cc1cc(CNc2[nH]nc(Nc3ccc(-n4ccnc4)cc3)c2C(N)=O)cc(C)c1O [drawing 179, reference compound]		
< 0.05	< 0.05	< 0.05	NC(=O)c1c(Nc2ccc(CN3CCCCC3)cc2)n[nH]c1NCc1ccc(O)cc1 [reference compound]	D (D represents Kd (JAK3): Kd(RCK)<1)	D (D represents Kd(JAK2): Kd (RCK)<1)
> 1	0.1 to 1	0.1 to 1	Cc1cc(CNc2[nH]nc(Nc3ccc(S(N)(=O)=O)cc3)c2C(N)=O)cc(C)c1O [Compound 48, 5-((4-hydroxy-3,5-dimethylbenzyl)amino)-3-((4-sulfamoylphenyl)amino)-1H-pyrazole-4-carboxamide]	B (B represents 10<Kd (JAK3): Kd (RCK)<100)	C (C represents 1<Kd (JAK2): Kd (RCK)<10)
> 1	> 1	> 1	Cc1cc(CNc2[nH]nc(Nc3ccc(N)cc3)c2C(N)=O)cc(C)c1O [Compound 47, 3-((4-aminophenyl)amino)-5-((4-hydroxy-3,5-dimethylbenzyl)amino)-1H-pyrazole-4-carboxamide]	C (C represents 1<Kd (JAK3): Kd (RCK)<10)	C (C represents 1<Kd (JAK2): Kd (RCK)<10)
> 1	> 1	0.05 to 0.1	Cc1cc(CNc2[nH]nc(Nc3ccc(N4CCC(Cl)CC4)cc3)c2C(N)=O)cc(C)c1O [Compound 34, 3-((4-(4-chloropiperidin-1-yl)phenyl)amino)-5-((4-hydroxy-3,5-dimethylbenzyl)amino)-1H-pyrazole-4-carboxamide]	B (B represents 10<Kd (JAK3): Kd (RCK)<100)	B (B represents 10<Kd(JAK2): Kd (RCK)<100)
> 1	> 1	0.05 to 0.1	Cc1cc(CNc2[nH]nc(Nc3ccc(-c4cccnc4)cc3)c2C(N)=O)cc(C)c1O [Compound 16, 5-((4-hydroxy-3,5-dimethylbenzyl)amino)-3-((4-(pyridin-3-yl)phenyl)amino)-1H-pyrazole-4-carboxamide]	B (B represents 10<Kd (JAK3): Kd (RCK)<100)	B (B represents 10<Kd(JAK2): Kd (RCK)<100)
> 1	> 1	0.1 to 1	Cc1cc(CNc2[nH]nc(Nc3ccc(N4CCOCC4=O)cc3)c2C(N)=O)cc(C)c1O [Compound 59, 5-((4-hydroxy-3,5-dimethylbenzyl)amino)-3-((4-(3-oxomorpholino)phenyl)amino)-1H-pyrazole-4-carboxamide]	B (B represents 10<Kd (JAK3): Kd (RCK)<100)	B (B represents 10<Kd(JAK2): Kd (RCK)<100)

Continued, molecule first:

Structure (SMILES)	Kd (JAK3) [µM]	Kd (JAK2) [µM]	Kd [1] [µM]	RCK:JAK3 selectivity ratio (JAK3)	RCK:JAK2 selectivity ratio (JAK2)
N#CCc1ccc(Nc2n[nH]c(NCc3ccc(O)cc3)c2C(N)=O)cc1 [reference compound]	< 0.05	< 0.05	< 0.05	C (C represents 1<Kd (JAK3): Kd (RCK)<10)	D (D represents Kd(JAK2): Kd (RCK)<1)
COc1cccc(Nc2n[nH]c(NCc3ccc(O)cc3)c2C(N)=O)c1 [reference compound]	< 0.05	< 0.05	< 0.05	D (D represents Kd (JAK3): Kd(RCK)<1)	D (D represents Kd(JAK2): Kd (RCK)<1)
Cc1cc(Nc2n[nH]c(NCc3cc(C)c(O)c(C)c3)c2C(N)=O)ccc1N1CCN(C)CC1 [Compound 29, 5-((4-hydroxy-3,5-dimethylbenzyl)amino)-3-((3-methyl-4-(4-methylpiperazin-1-yl)phenyl)amino)-1H-pyrazole-4-carboxamide]	> 1	0.1 to 1	< 0.05	B (B represents 10<Kd (JAK3): Kd (RCK)<100)	B (B represents 10<Kd(JAK2): Kd (RCK)<100)
CC(C)N1CCN(c2ccc(Nc3n[nH]c(NCc4ccc(O)cc4)c3C(N)=O)cc2)CC1 [reference compound]	0.05 to 0.1	< 0.05	< 0.05	B (B represents 10<Kd (JAK3): Kd (RCK)<100)	C (C represents 1<Kd (JAK2): Kd (RCK)<10)
NC(=O)c1c(Nc2ccc(-n3cccc3)cc2)n[nH]c1NCc1ccc(O)cc1 [reference compound]	< 0.05	< 0.05	< 0.05	C (C represents 1<Kd (JAK3): Kd (RCK)<10)	D (D represents Kd(JAK2): Kd (RCK)<1)
NC(=O)c1c(Nc2ccc3[nH]ncc3c2)n[nH]c1NCc1ccc(O)cc1 [reference compound]	< 0.05	< 0.05	0.05 to 0.1	D (D represents Kd (JAK3): Kd(RCK)<1)	D (D represents Kd(JAK2): Kd (RCK)<1)
CN1CCN(c2ccc(Nc3n[nH]c(NCc4ccc(O)cc4)c3C(N)=O)cc2)CC1 [reference compound]	< 0.05	< 0.05	< 0.05	C (C represents 1<Kd (JAK3): Kd (RCK)<10)	C (C represents 1<Kd (JAK2): Kd (RCK)<10)
CC(C)C1CCN(c2ccc(Nc3n[nH]c(NCc4ccc(O)cc4)c3C(N)=O)cc2)CC1 [reference compound]	0.1 to 1	0.1 to 1	0.05 to 0.1	C (C represents 1<Kd (JAK3): Kd (RCK)<10)	C (C represents 1<Kd (JAK2): Kd (RCK)<10)
CC(C)N1CCN(c2ccc(Nc3n[nH]c(NCc4ccc(O)cc4)c3C(N)=O)cc2Cl)CC1 [reference compound]	< 0.05	< 0.05	< 0.05	C (C represents 1<Kd (JAK3): Kd (RCK)<10)	C (C represents 1<Kd (JAK2): Kd (RCK)<10)
Cc1cc(CNc2[nH]nc(Nc3ccc(CN4CCCC4)cc3)c2C(N)=O)cc(C)c1O [Compound 35, 5-((4-hydroxy-3,5-dimethylbenzyl)amino)-3-((4-(pyrrolidin-1-ylmethyl)phenyl)amino)-1H-pyrazole-4-carboxamide]	> 1	0.1 to 1	0.05 to 0.1	B (B represents 10<Kd (JAK3): Kd (RCK)<100)	C (C represents 1<Kd (JAK2): Kd (RCK)<10)
Cc1cc(CNc2[nH]nc(Nc3ccc(N4C[C@@H](C)O[C@@H](C)C4)c(Cl)c3)c2C(N)=O)cc(C)c1O [Compound 15, 3-((3-chloro-4-(2,6-dimethylmorpholino)phenyl)amino)-5-((4-hydroxy-3,5-dimethylbenzyl)amino)-1H-pyrazole-4-carboxamide]	> 1	> 1	0.05 to 0.1	B (B represents 10<Kd (JAK3): Kd (RCK)<100)	B (B represents 10<Kd(JAK2): Kd (RCK)<100)
C[C@@H]1CC(c2ccc(Nc3n[nH]c(NCc4ccc(O)cc4)c3C(N)=O)cn2)C[C@H](C)O1 (stereo partly drawn) [reference compound]	< 0.05	< 0.05	< 0.05	C (C represents 1<Kd (JAK3): Kd (RCK)<10)	C (C represents 1<Kd (JAK2): Kd (RCK)<10)
Cc1cc(CNc2[nH]nc(Nc3ccc(N4CCC(C(C)C)CC4)cc3)c2C(N)=O)cc(C)c1O [Compound 58, 5-((4-hydroxy-3,5-dimethylbenzyl)amino)-3-((4-(4-isopropylpiperidin-1-yl)phenyl)amino)-1H-pyrazole-4-carboxamide]	> 1	> 1	0.1 to 1	B (B represents 10<Kd (JAK3): Kd (RCK)<100)	B (B represents 10<Kd(JAK2): Kd (RCK)<100)
